{
  "source": "patent US9072297B2",
  "about": "“Herbicidal composition” (ISHIHARA SANGYO KAISHA, LTD., priority 2010, dated 2015)",
  "type_in_all_cases": "in vivo",
  "key": {"[1]": {"system": "field bindweed (Convolvulus arvensis L.)", "test": "Test Example 4: soil application pot test, field bindweed", "conditions": "read-out: Growth inhibition rate (%) of field bindweed Measured value", "protocol": "(§1) Growth inhibition rate (%)= • 0:equivalent to the non-treated area to 100:complete kill\n(§2) Upland field soil was put into a 1/1,000,000 ha pot, and seeds of field bindweed (Convolvulus arvensis L.) were sown. On the day after application, a predetermined amount of each herbicidal composition was diluted with water corresponding to 200 L/ha and applied by soil application with a small sprayer.\n(§3) On the 42nd day after application, the state of growth of the plant was visually observed."}, "[2]": {"system": "crabgrass (Digitaria ciliaris (Retz.) Koel)", "test": "Test Example 1: foliar application pot test, crabgrass", "conditions": "read-out: Growth inhibition rate (%) of crabgrass Measured value", "protocol": "(§4) Upland field soil was put into a 1/1,000,000 ha pot, and seeds of various plants were sown. When the plants reached certain leaf stages (guineagrass (Panicum maximum Jacq.): 4.5 to 5.0 leaf stage, crabgrass (Digitaria ciliaris (Retz.) Koel): 3.0 to 4.2 leaf stage), a predetermined amount of each herbicidal composition was diluted with water (corresponding to 200 L/ha) containing 0.25 vol % of an agricultural adjuvant (tradename: Agral, manufactured by Syngenta) and applied by foliar application with a small sprayer.\n(§5) On the 28th day after application, the state of growth of the plants were visually observed and evaluated in accordance with the following evaluation standard. The growth inhibition rate (%) (measured value) and the growth inhibition rate (%) (calculated value) calculated by the Colby's formula are shown in Tables 1 and 2.\nas §1"}, "[3]": {"system": "crabgrass (Digitaria ciliaris (Retz.) Koel)", "test": "Test Example 5: foliar application pot test, crabgrass (MonFast adjuvant)", "conditions": "read-out: Growth inhibition rate (%) of crabgrass Measured value", "protocol": "as §1\n(§6) Upland field soil was put into a 1/1,000,000 ha pot, and seeds of crabgrass (Digitaria ciliaris (Retz.) Koel) were sown. When crabgrass reached 3.0 to 4.2 leaf stage, a predetermined amount of each herbicidal composition was diluted with water (corresponding to 200 L/ha) containing 0.2 vol % of an agricultural adjuvant (tradename: MonFast, manufactured by Monsanto) and applied by foliar application with a small sprayer.\n(§7) On the 28th day after application, the state of growth of the plant was visually observed."}, "[4]": {"system": "surinam grass (Brachiaria decumbens Stapf.)", "test": "Test Example 3: soil application pot test, surinam grass", "conditions": "Urochloa decumbens, read-out: Growth inhibition rate (%) of surinam grass Measured value", "protocol": "as §1\nas §2, with “surinam grass (Brachiaria decumbens Stapf.)” for “field bindweed (Convolvulus arvensis L.)”\nas §3"}, "[5]": {"system": "crabgrass (Digitaria ciliaris (Retz.) Koel)", "test": "Test Example 6: foliar application pot test, crabgrass 3.8 to 4.0 leaf stage", "conditions": "read-out: Growth inhibition rate (%) of crabgrass Measured value", "protocol": "as §1\nas §6, with “3.8” for “3.0”, “4.0” for “4.2”, “0.25” for “0.2”, “Agral,” for “MonFast,”, “Syngenta)” for “Monsanto)”\nas §7"}, "[6]": {"system": "surinam grass (Brachiaria decumbens Stapf.)", "test": "Test Example 2: foliar application pot test, surinam grass", "conditions": "Urochloa decumbens, read-out: Growth inhibition rate (%) of surinam grass Measured value", "protocol": "as §1\nUpland field soil was put into a 1/1,000,000 ha pot, and seeds of surinam grass (Brachiaria decumbens Stapf.) were sown. When the surinam grass reached 2.8 to 3.2 leaf stage, a predetermined amount of each herbicidal composition was diluted with water (corresponding to 200 L/ha) containing 0.25 vol % of an agricultural adjuvant (tradename: Agral, manufactured by Syngenta) and applied by foliar application with a small sprayer.\nas §7"}, "[7]": {"system": "guineagrass (Panicum maximum Jacq.)", "test": "Test Example 1: foliar application pot test, guineagrass", "conditions": "Megathyrsus maximus, read-out: Growth inhibition rate (%) of guineagrass Measured value", "protocol": "as §4, §5, §1"}, "[8]": {"system": "crabgrass (Digitaria ciliaris (Retz.) Koel)", "test": "Test Example 7: foliar application pot test, crabgrass 4.5 leaf stage", "conditions": "read-out: Growth inhibition rate (%) of crabgrass Measured value; for inhibition at 300 g/ha: foliar", "protocol": "as §1\nas §6, with “4.5” for “3.0 to 4.2”, “0.25” for “0.2”, “Agral,” for “MonFast,”, “Syngenta)” for “Monsanto)”\nas §7"}},
  "data": [
    {"smiles": "COc1cc(OC)nc(NC(=O)NS(=O)(=O)c2ncccc2C(F)(F)F)n1", "note": "[Flazasulfuron, 1-(4,6-dimethoxypyrimidin-2-yl)-3-(3-trifluoromethyl-2-pyridylsulfonyl)urea]", "values": [
      {"measurement": "inhibition at 37.5 g/ha", "setting": "[1]; dose 37.5 g/ha, soil application, 42nd day after application", "value": 25, "unit": "%"},
      {"measurement": "inhibition at 25 g/ha", "setting": "[2]; dose 25 g/ha, foliar application, 3.0 to 4.2 leaf stage, Agral, 28th day after application", "value": 40, "unit": "%"},
      {"measurement": "inhibition at 30 g/ha", "setting": "[3]; dose 30 g/ha, foliar application, 3.0 to 4.2 leaf stage, MonFast, 28th day after application", "value": 50, "unit": "%"},
      {"measurement": "inhibition at 40 g/ha", "setting": "[3]; dose 40 g/ha, foliar application, 3.0 to 4.2 leaf stage, MonFast, 28th day after application", "value": 58, "unit": "%"},
      {"measurement": "inhibition at 25 g/ha", "setting": "[4]; dose 25 g/ha, soil application, 42nd day after application", "value": 70, "unit": "%"},
      {"measurement": "inhibition at 15 g/ha", "setting": "[5]; dose 15 g/ha, foliar application, 3.8 to 4.0 leaf stage, Agral, 28th day after application", "value": 40, "unit": "%"},
      {"measurement": "inhibition at 37.5 g/ha", "setting": "[6]; dose 37.5 g/ha, foliar application, 2.8 to 3.2 leaf stage, 28th day after application", "value": 45, "unit": "%"},
      {"measurement": "inhibition at 20 g/ha", "setting": "[7]; dose 20 g/ha, foliar application, 4.5 to 5.0 leaf stage, 28th day after application", "value": 90, "unit": "%"},
      {"measurement": "inhibition at 37.5 g/ha", "setting": "[7]; dose 37.5 g/ha, foliar application, 4.5 to 5.0 leaf stage, 28th day after application", "value": 92, "unit": "%"},
      {"measurement": "inhibition at 100 g/ha", "setting": "[8]; dose 100 g/ha, foliar application, 4.5 leaf stage, Agral, 28th day after application", "value": 73, "unit": "%"}
    ]},
    {"smiles": "CN(C)C(=O)Nc1ccc(Cl)c(Cl)c1", "note": "[Diuron, 3-(3,4-dichlorophenyl)-1,1-dimethylurea]", "values": [
      {"measurement": "inhibition at 1250 g/ha", "setting": "[1]; soil", "value": 0, "unit": "%"},
      {"measurement": "inhibition at 3000 g/ha", "setting": "[5]; foliar", "value": 80, "unit": "%"},
      {"measurement": "inhibition at 1250 g/ha", "setting": "[6]; foliar", "value": 0, "unit": "%"}
    ]},
    {"smiles": "CNC(=O)N(C)c1nnc(C(C)(C)C)s1", "note": "[Tebuthiuron, 1-(5-tertiarybutyl-1,3,4-thiadiazol-2-yl)-1,3-dimethylurea]", "values": [
      {"measurement": "inhibition at 500 g/ha", "setting": "[2]; foliar", "value": 0, "unit": "%"},
      {"measurement": "inhibition at 500 g/ha", "setting": "[4]; soil", "value": 28, "unit": "%"},
      {"measurement": "inhibition at 500 g/ha", "setting": "[7]; foliar", "value": 15, "unit": "%"},
      {"measurement": "inhibition at 300 g/ha", "setting": "[8]", "value": 17, "unit": "%"}
    ]},
    {"smiles": "CON(C)C(=O)Nc1ccc(Br)cc1", "note": "[Metobromuron, 3-(4-bromophenyl)-1-methoxy-1-methylurea]", "values": [
      {"measurement": "inhibition at 500 g/ha", "setting": "[3]; foliar", "value": 0, "unit": "%"},
      {"measurement": "inhibition at 1000 g/ha", "setting": "[3]; foliar", "value": 0, "unit": "%"},
      {"measurement": "inhibition at 300 g/ha", "setting": "[8]", "value": 5, "unit": "%"}
    ]}
  ]
}
